Values of other authors as cited in patent publication US20180235913A1, “AN ORAL PHARMACEUTICAL FORMULATION COMPRISING SUSTAINED-RELEASE GRANULES CONTAINING TAMSULOSIN HYDROCHLORIDE” (HANMI PHARM. CO., LTD., priority 2015, published 2018).
Counter-ions that a name gives are not always drawn.

Conditions: white crystalline powder

Water solubility: slight water solubility
SMILES: CCOc1ccccc1OCCN[C@H](C)Cc1ccc(OC)c(S(N)(=O)=O)c1 [Tamsulosin hydrochloride]
